Reference: PubChem BioAssay AID248 (DTP/NCI, 2004)
Several values for one entry are separate records, joined by “and”; a condition that tells them apart may be missing. Equal entries are not always repeated. Inconclusive results and toxic doses are left out. Cut-off read from the data, not from the text of the source: active = T/C of 150% or more; inactive = T/C below 125%.

System: L1210 leukemia ip in BDF1 mice, survival T/C
Test: NCI In Vivo Anticancer Drug Screen. Data for tumor model L1210 Leukemia (intraperitoneal) in B6D2F1 (BDF1) mice
Settings: endpoint: mean survival time, higher = longer survival
In short: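 Each compound was tested against a transplantable tumor grown in mice. The endpoint was survival, with treated animals benchmarked against vehicle controls as a simple ratio.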

[1] = dose: 100.0 mg/kg/injection, schedule: Q04DX002 (ip), vehicle: Klucel (hydroxypropylcellulose) (HPC)
[2] = dose: 200.0 mg/kg/injection, schedule: Q04DX002 (ip), vehicle: Klucel (hydroxypropylcellulose) (HPC)
[3] = dose: 400.0 mg/kg/injection, schedule: Q04DX002 (ip), vehicle: Klucel (hydroxypropylcellulose) (HPC)
[4] = dose: 100.0 mg/kg/injection, schedule: Q01DX001 (ip), vehicle: saline
[5] = dose: 200.0 mg/kg/injection, schedule: Q01DX001 (ip), vehicle: saline
[6] = dose: 100.0 mg/kg/injection, schedule: Q04DX003 (ip), vehicle: Klucel (hydroxypropylcellulose) (HPC)
[7] = dose: 100.0 mg/kg/injection, schedule: Q04DX003 (ip), vehicle: saline
[8] = dose: 200.0 mg/kg/injection, schedule: Q04DX003 (ip), vehicle: saline
[9] = dose: 400.0 mg/kg/injection, schedule: Q04DX003 (ip), vehicle: saline
[10] = dose: 100.0 mg/kg/injection, schedule: Q01DX009 (ip), vehicle: saline
[11] = dose: 200.0 mg/kg/injection, schedule: Q01DX009 (ip), vehicle: saline
[12] = dose: 200.0 mg/kg/injection, schedule: Q04DX003 (ip), vehicle: Klucel (hydroxypropylcellulose) (HPC)
[13] = dose: 400.0 mg/kg/injection, schedule: Q04DX003 (ip), vehicle: Klucel (hydroxypropylcellulose) (HPC)
[14] = dose: 75.0 mg/kg/injection, schedule: Q01DX001 (ip), vehicle: carboxymethylcellulose (CMC)

Measured: T/C

O=[N+]([O-])c1ccc(-n2ccnc2)c([N+](=O)[O-])c1
inactive: [1] 100 % of control | [2] 100 % of control | [3] 93 % of control

OCC1CC(n2cnc3c(=S)nc[nH]c32)C(O)C1O (configuration not stated)
inactive: dose: 50.0 mg/kg/injection, schedule: Q01DX001 (ip), vehicle: saline 96 % of control | [4] 96 % of control | [5] 96 % of control

C=CC(=O)Nc1ccc(Cl)cc1
inactive: dose: 25.0 mg/kg/injection, schedule: Q04DX003 (ip), vehicle: Klucel (hydroxypropylcellulose) (HPC) 98 % of control | dose: 50.0 mg/kg/injection, schedule: Q04DX003 (ip), vehicle: Klucel (hydroxypropylcellulose) (HPC) 96 % of control | [6] 107 % of control and 90 % of control

COc1ccc2c(c1)-c1c(ccc(OC)c1OC(=O)C(=O)c1ccccc1)CC(Cl)N(C)CC2.[O]=[Cr](=[O])([OH])[OH] (configuration not stated)
inactive: [7] 89 % of control | [8] 89 % of control | [9] 90 % of control

CC(C(=O)O)N(CC(=O)O)CC(=O)O.[Co+2].[NH-]CC(=O)O (configuration not stated)
inactive: dose: 6.25 mg/kg/injection, schedule: Q01DX009 (ip), vehicle: water 106 % of control and 89 % of control | dose: 12.5 mg/kg/injection, schedule: Q01DX009 (ip), vehicle: water 93 % of control and 106 % of control and 124 % of control | dose: 25.0 mg/kg/injection, schedule: Q01DX009 (ip), vehicle: water 102 % of control and 109 % of control | dose: 50.0 mg/kg/injection, schedule: Q01DX009 (ip), vehicle: water 109 % of control and 114 % of control | dose: 100.0 mg/kg/injection, schedule: Q04DX003 (ip), vehicle: water 107 % of control | dose: 200.0 mg/kg/injection, schedule: Q04DX003 (ip), vehicle: water 105 % of control

CC(C)(CNC1CCCC1)OC(=O)c1ccccc1
inactive: dose: 75.0 mg/kg/injection, schedule: Q01DX001 (ip), vehicle: saline 97 % of control and 95 % of control | dose: 150.0 mg/kg/injection, schedule: Q01DX001 (ip), vehicle: saline 107 % of control

O=c1[nH]c2ccc(Br)cc2cc1Br
inactive: [4] 97 % of control | [5] 97 % of control | dose: 400.0 mg/kg/injection, schedule: Q01DX001 (ip), vehicle: saline 97 % of control

Oc1ccc(C2=CSC3=NCCN23)cc1
inactive: dose: 5.0 mg/kg/injection, schedule: Q01DX001 (ip), vehicle: saline 94 % of control | dose: 10.0 mg/kg/injection, schedule: Q01DX001 (ip), vehicle: saline 93 % of control | dose: 20.0 mg/kg/injection, schedule: Q01DX001 (ip), vehicle: saline 93 % of control | dose: 40.0 mg/kg/injection, schedule: Q01DX001 (ip), vehicle: saline 96 % of control | dose: 80.0 mg/kg/injection, schedule: Q01DX001 (ip), vehicle: saline 104 % of control

COC(=O)C(C)(OC)OC
inactive: [10] 104 % of control | [6] 96 % of control | [11] 112 % of control | [12] 100 % of control | dose: 400.0 mg/kg/injection, schedule: Q01DX009 (ip), vehicle: saline 105 % of control | [13] 96 % of control

COc1ccc(NC(=O)Nc2ccc(CCO)cc2)c(OC)c1
inactive: [1] 97 % of control | [2] 93 % of control | [3] 93 % of control

c1cc(Cc2ccc3c(c2)OCO3)c[nH]1
inactive: dose: 50.0 mg/kg/injection, schedule: Q04DX002 (ip), vehicle: saline with Tween-80 103 % of control | dose: 100.0 mg/kg/injection, schedule: Q04DX002 (ip), vehicle: saline with Tween-80 110 % of control | dose: 200.0 mg/kg/injection, schedule: Q04DX002 (ip), vehicle: saline with Tween-80 100 % of control

IC[P+](c1ccccc1)(c1ccccc1)c1ccccc1
inactive: [14] 106 % of control

CCOC(=O)NC(NC(=O)OCC)c1ccc2c(c1)OCO2
inactive: dose: 50.0 mg/kg/injection, schedule: Q01DX001 (ip), vehicle: carboxymethylcellulose (CMC) 105 % of control | dose: 100.0 mg/kg/injection, schedule: Q01DX001 (ip), vehicle: carboxymethylcellulose (CMC) 96 % of control | dose: 200.0 mg/kg/injection, schedule: Q01DX001 (ip), vehicle: carboxymethylcellulose (CMC) 91 % of control | dose: 400.0 mg/kg/injection, schedule: Q01DX001 (ip), vehicle: carboxymethylcellulose (CMC) 94 % of control

C[S+](C)CCCCCC[S+](C)C
inactive: [7] 102 % of control

O=C1C(=O)c2ccccc2C(O)=C1Sc1ccc(Cl)cc1
inactive: [14] 103 % of control | dose: 150.0 mg/kg/injection, schedule: Q01DX001 (ip), vehicle: carboxymethylcellulose (CMC) 98 % of control | dose: 300.0 mg/kg/injection, schedule: Q01DX001 (ip), vehicle: carboxymethylcellulose (CMC) 98 % of control

O=P(O)(O)CCC(O)CO (configuration not stated)
inactive: dose: 100.0 mg/kg/injection, schedule: Q04DX002 (ip), vehicle: saline 94 % of control | dose: 200.0 mg/kg/injection, schedule: Q04DX002 (ip), vehicle: saline 97 % of control | dose: 400.0 mg/kg/injection, schedule: Q04DX002 (ip), vehicle: saline 102 % of control

CC[n+]1ccc(/C=C\c2c(Cl)cccc2Cl)cc1
inactive: dose: 12.5 mg/kg/injection, schedule: Q01DX009 (ip), vehicle: Klucel (hydroxypropylcellulose) (HPC) 100 % of control | dose: 25.0 mg/kg/injection, schedule: Q01DX009 (ip), vehicle: Klucel (hydroxypropylcellulose) (HPC) 100 % of control | [6] 100 % of control | [12] 100 % of control | [13] 112 % of control

CCN(CC)CCN(CC)CCN(CC)CC
inactive: [10] 94 % of control | [11] 115 % of control

CCCCCCCCCCCCCCCCCC(=O)N/N=C\c1ccc(O)c(OC)c1
inactive: dose: 100.0 mg/kg/injection, schedule: Q01DX009 (ip), vehicle: Klucel (hydroxypropylcellulose) (HPC) 95 % of control | dose: 200.0 mg/kg/injection, schedule: Q01DX009 (ip), vehicle: Klucel (hydroxypropylcellulose) (HPC) 90 % of control | dose: 400.0 mg/kg/injection, schedule: Q01DX009 (ip), vehicle: Klucel (hydroxypropylcellulose) (HPC) 88 % of control

O=C1CSC(=O)N1c1ccccc1
inactive: dose: 100.0 mg/kg/injection, schedule: Q01DX001 (ip), vehicle: saline with Tween-80 107 % of control | [7] 93 % of control | dose: 200.0 mg/kg/injection, schedule: Q01DX001 (ip), vehicle: saline with Tween-80 94 % of control | [8] 100 % of control | dose: 400.0 mg/kg/injection, schedule: Q01DX001 (ip), vehicle: saline with Tween-80 98 % of control | [9] 89 % of control

Cc1cccc(C)c1NC(=O)OCCOc1ccc(Br)cc1
inactive: dose: 100.0 mg/kg/injection, schedule: Q01DX009 (ip), vehicle: saline with Tween-80 95 % of control | dose: 200.0 mg/kg/injection, schedule: Q01DX009 (ip), vehicle: saline with Tween-80 92 % of control | dose: 400.0 mg/kg/injection, schedule: Q01DX009 (ip), vehicle: saline with Tween-80 92 % of control

[CH3][Sb]([CH3])([CH3])([O]C(=O)C(Cl)Cl)[O]C(=O)C(Cl)Cl
inactive: dose: 100.0 mg/kg/injection, schedule: Q04DX003 (ip), vehicle: saline with Tween-80 105 % of control | dose: 200.0 mg/kg/injection, schedule: Q04DX003 (ip), vehicle: saline with Tween-80 108 % of control | dose: 400.0 mg/kg/injection, schedule: Q04DX003 (ip), vehicle: saline with Tween-80 103 % of control

COc1ccc(NC(=O)COc2ccc(Cl)cc2Cl)cc1
inactive: [1] 108 % of control | [2] 92 % of control | [3] 94 % of control
